One substance from patent publication US6855490B2, “Method for attaching biological molecules to a glass surface” (Medical Discovery Partners LLC, priority 1999, dated 2005) can be followed below.

Primed or numbered codes have the meaning given here. FITC′ = fluorescein group attached to the epsilon side chain of lysine

Test [1] has as its target 1D5 monoclonal antibody. Description: Fluorescence polarization assay of synthetic ER peptides. The following applies: binding to 1D5 monoclonal antibody, FITC-labelled peptide. Also noted: species or system mouse. As for the experimental part:
Large quantities of each of the selected phage are grown and nucleic acid extracted for sequence analysis. Based on the nucleotide sequence coding for the inserted ten-mer peptide, corresponding peptides are synthesized. Numerous commercial vendors provide peptide synthesis capabilities. The binding affinity of each of the selected peptide sequences for their antibodies is determined using Scatchard analysis. The percentage of antibodies binding to the peptide can be ascertained using fluorescence polarization analysis, provided that the peptide is fluorescently labeled. The specificity of binding for each peptide antigen mimic is tested using irrelevant, isotype-matched antibodies.
(§1) Three synthetic peptides (designated as ER peptide 3, ER peptide 4, and ER peptide 6), that are representative of above consensus phage sequence, were synthesized (by SynPep Labs, Dublin, Calif. and Bachem Labs, King of Prussia, Pa.) and tested for specificity/affinity to 1D5 monoclonal antibody.
A general note: Fluorescence polarisation rises when a labelled molecule tumbles more slowly, as on binding a larger partner.

For test [2], the system named is 1D5 monoclonal antibody. In words: Peptide ELISA of synthetic ER peptides. The format is binding, mouse. The following applies: compared among ER peptides 3, 4 and 6.
Source text: as §1

On to “Ac-DFQCPYVECVVNAPGGK(FITC)GK-CONH2 (Ac-DFQCPYVECVVNAPGGK(FITC′)GK-NH2; cysteine pairing not given here) [ER peptide 3]”, for which the Kd (in general, the equilibrium constant for the complex coming apart) in test [1] is approximately 1 nM. Also, the “Peptide ELISA signal” value in test [2] was “highest signal”.
